Source: patent publication US20060148692A1, “Novel protein and its dna” (priority 2003, published 2006)

Legend:
[1] = system: GeneBank No. 170665; assay: Gene expression analysis (oligonucleotide microarray) in rat primary nerve cells stimulated with β-amyloid; assay type: cell-based; conditions: β-amyloid 25 nM, standardized with the median (=1)
Protocol: For the purpose of examining whether the expression of GeneBank No. 170665 whose expression was promoted by endoplasmic reticulum stress was influenced by β-amyloid stimulation, gene expression analysis was conducted using the cells stimulated with β-amyloid in the same manner as in Example 1.
Rat primary nerve cells prepared in the same manner as in Example 1 were suspended in N2-containing DMEM medium (GIBCO), then put at a density of 250,000 cells/well and cultured for 4 days. After culture, β-amyloid suspended at a final concentration of 25 nM in the above medium was added to the cells. After 4, 8, and 24 hours, total RNA was extracted from the cells and gene analysis was conducted in the same manner as in Example 1. As the control, the cells to which the above medium was added in place of β-amyloid were used. The expression of GeneBank No. 170665 was promoted in the cells stimulated with β-amyloid, as compared with the control (Table 2).

[2] = system: GeneBank No. 170665; assay: Gene expression analysis (oligonucleotide microarray) in rat primary nerve cells under endoplasmic reticulum stress; assay type: cell-based; conditions: standardized with the median (=1)
Protocol: Rat primary nerve cells prepared from TP-17 CD rats (Nippon Charles River) were suspended in B27-containing neurobasal medium (NB medium, GIBCO), then put at a density of 250,000 cells/well in a type I collagen-coated 24-well plate (SUMILON), and cultured for 3 days. (i) Tunicamycin (Tnc) was added at a final concentration of 100 nM to the cultured cells, (ii) thapsigargin (Thap) was added at a final concentration of 2 nM to the cultured cells, or (iii) after the medium was exchanged twice with glucose-free B27-containing DMEM medium, 2-deoxyglucose (2DG) was added at a concentration of 3 mM to the cultured cells. After 4, 8, and 24 hours, total RNA was extracted from the respective cells by using RNeasy Mini Kit (Qiagen) according to its instructions. As the control, the cells to which each medium was added in place of the above chemicals (Tnc, Thap and 2DG) (cells to which no chemical was added) were used. These were used as the material to conduct gene expression analysis using an oligonucleotide microarray (Rat Genome U34A, Affymetrix).
The experimental method was in accordance with instructions of Affymetrix (Expression analysis technical manual). As a result of comparison of gene expression profiles of the cells stimulated with each chemical and the cells to which no chemical was added, the expression of GeneBank No. 170665 was promoted by endoplasmic reticulum stress stimulation [the above (i), (ii) and (iii)] (Table 1).

[3] = system: IMR-32 cells; assay: Aβ40 and Aβ42 concentration in culture supernatant of transformed cells by ELISA; assay type: cell-based; conditions: IMR-32 cells transformed with C1 vs GFP control cells; 24 hours after medium exchange
Protocol: The C1 gene expression vector described in Example 4 was transformed into IMR-32 cells by using Nucleofector (AMAXA). As the control, a GFP gene expression vector (Wako) was transformed into other IMR-32 cells. The respective transformed cells were put at a density of 1,000,000 cells/well in a type I collagen-coated 24-well plate (IWAKI) and cultured for 16 hours. After the medium was exchanged with a new one, the cells were cultured for additional 24 hours, and the concentrations of Aβ40 and Aβ42 in the culture supernatant were measured respectively by ELISA (Biochemistry 34, 10272-10278, 1995).

[4] = system: SK-N-AS cells; assay: DNA cleavage accompanying tunicamycin-induced cell-death (CELL DEATH DETECTION ELISA PLUS) in transformed cells; assay type: cell-based, human; conditions: SK-N-AS cells transformed with the C1 gene vs pcDNA3.1 control cells; tunicamycin for 1 or 2 days
Protocol: A plasmid comprising the nucleotide sequence represented by SEQ ID NO:2 was designated C1-pcDNA3.1/V5-His TOPO, and a transformant having the plasmid was designated Escherichia coli DH5α/C1-pcDNA3.1N5-His TOPO. This transformant was cultured in LB medium, and the vector was recovered by using QUAGEN plasmid midi kit (Qiagen). This C1 gene expression vector was transformed into SK-N-AS cells by using Nucleofector (AMAXA). As the control, pcDNA3.1 (Invitrogen) was transformed into SK-N-AS cells.
The respective transformed cells were put at a density of 7500 cells/well in a type I collagen-coated 96-well plate (IWAKI) and then cultured overnight, and after tunicamycin was added at various concentrations, the cells were cultured for 1 or 2 days to induce cell-death. After culture, DNA cleavage accompanying cell-death was detected by using CELL DEATH DETECTION ELISA^PLUS kit (Roche). The experimental method was in accordance with instructions attached to the kit.

Question: With β-amyloid as the molecule, how does the Gene expression level ([1]; after 4 hours) read?
Answer: 3.44

Question: And the Gene expression level ([1]; after 8 hours)?
Answer: 6.99

Question: And the Gene expression level ([1]; after 24 hours)?
Answer: 4.40

Question: With tunicamycin as the molecule, how does the Gene expression level ([2]; tunicamycin 100 nM, after 4 hours) read?
Answer: 3.00

Question: And the Gene expression level ([2]; tunicamycin 100 nM, after 8 hours)?
Answer: 2.81

Question: And the Gene expression level ([2]; tunicamycin 100 nM, after 24 hours)?
Answer: 3.63

Question: Which Gene expression level ([2]; 2DG 3 mM in glucose-free DMEM medium, after 4 hours) does the source give for `O=CC[C@@H](O)[C@H](O)[C@H](O)CO` [2DG, 2-deoxyglucose] here?
Answer: 16.71

Question: What about the Gene expression level ([2]; 2DG 3 mM in glucose-free DMEM medium, after 8 hours) of the same molecule?
Answer: 15.11

Question: What about the Gene expression level ([2]; 2DG 3 mM in glucose-free DMEM medium, after 24 hours) of the same molecule?
Answer: 14.55

Question: Which Gene expression level ([2]; thapsigargin 2 nM, after 4 hours) does the source give for `C/C=C(/C)C(=O)O[C@H]1C(C)=C2[C@H]([C@@H]1OC(=O)CCCCCCC)[C@@](C)(OC(C)=O)C[C@H](OC(=O)CCC)[C@@]1(O)[C@H]2OC(=O)[C@@]1(C)O` [thapsigargin] here?
Answer: 8.77

Question: And the Gene expression level ([2]; thapsigargin 2 nM, after 8 hours)?
Answer: 9.65

Question: What about the Gene expression level ([2]; thapsigargin 2 nM, after 24 hours) of the same molecule?
Answer: 7.56

B1: C1: 264-amino-acid protein (SEQ ID NO: 1) encoded by SEQ ID NO:2; tested by transforming cells with C1 gene expression vector (protein, listed as Homo sapiens)
chain: MGGAQLELPSGARPGVCVRRSFRAHAGDQPRRPPGPIPVPGTMKQESAAPNTPPTSQSPTPSAQFPRNDGDPQALWIFGYGSLVWRPDFAYSDSRVGFVRGYSRRFWQGDTFHRGSDKMPGRVVTLLEDHEGCTWGVAYQVQGEQVSKALKYLNVREAVLGGYDTKEVTFYPQDAPDQPLKALAYVATPQNPGYLGPAPEEAIATQILACRGFSGHNLEYLLRLADFMQLCGPQAQDEHLAAIVDAVGTMLPCFCPTEQALALV
Question: For B1, which “Aβ40 concentration in culture supernatant” value [3] is on record?
Answer: reduced

Question: And the “Aβ42 concentration in culture supernatant” value [3]?
Answer: reduced

Question: And the “DNA cleavage (cell-death)” value [4]?
Answer: promoted
